Experimental data published in patent US10131652B2, “Pyrimidinyloxy benzene derivatives as herbicides” (E. I. DU PONT DE NEMOURS AND COMPANY, priority 2014, dated 2018).
Like-named read-outs stand apart in the source and are kept apart here.

Legend:
Experiment in all cases: Test D pre-/postemergence plant response
Assay type in all cases: in vivo
[1] = test system: waterhemp (common waterhemp, Amaranthus rudis); details: Amaranthus tuberculatus; for pest or weed control at 31 g/ha: 31 g ai/ha; for pest or weed control at 62 g/ha: 62 g ai/ha; for pest or weed control at 125 g/ha: 125 g ai/ha
In short: (§1)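 Visual injury scoring (0–100) at 13 to 15 days in greenhouse. Preemergence sprays on seeded loam/sand; postemergence sprays on 1–4 leaf plants.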

[2] = test system: morningglory (Ipomoea coccinea); details: Ipomoea; for pest or weed control at 31 g/ha: 31 g ai/ha; for pest or weed control at 62 g/ha: 62 g ai/ha; for pest or weed control at 125 g/ha: 125 g ai/ha
In short: as §1

soybean (Glycine max) = details: Glycine max; for plant injury at 31 g/ha: 31 g ai/ha; for plant injury at 62 g/ha: 62 g ai/ha; for plant injury at 125 g/ha: 125 g ai/ha
In short: as §1

[3] = test system: giant foxtail (Setaria faberii); details: Setaria faberi; for pest or weed control at 16 g/ha: 16 g ai/ha; for pest or weed control at 31 g/ha: 31 g ai/ha; for pest or weed control at 62 g/ha: 62 g ai/ha; for pest or weed control at 125 g/ha: 125 g ai/ha
In short: as §1

[4] = test system: barnyardgrass (Echinochloa crus-galli); details: Echinochloa crus-galli; for pest or weed control at 16 g/ha: 16 g ai/ha; for pest or weed control at 31 g/ha: 31 g ai/ha; for pest or weed control at 62 g/ha: 62 g ai/ha; for pest or weed control at 125 g/ha: 125 g ai/ha
In short: as §1

corn (Zea mays) = details: Zea mays; for Corn plant response rating (crop injury, 0 = no effect, 100 = complete kill) at 62 g/ha: 62 g ai/ha
In short: as §1

[5] = test system: pigweed (Amaranthus retroflexus); details: Amaranthus retroflexus; for pest or weed control at 125 g/ha: 125 g ai/ha
In short: as §1

[6] = post-emergence, Postemergence, scale 0 to 100, 0 no effect, 100 complete control, read-out: Plant response rating, Waterhemp
[7] = pre-emergence, Preemergence, scale 0 to 100 (0 no effect, 100 complete control), read-out: Plant response rating, Waterhemp
[8] = post-emergence, Postemergence, scale 0 to 100, 0 no effect, 100 complete control, read-out: Plant response rating, Morningglory
[9] = pre-emergence, Preemergence, scale 0 to 100 (0 no effect, 100 complete control), read-out: Plant response rating, Morningglory
[10] = post-emergence, Postemergence, scale 0 to 100, 0 no effect, 100 complete control, read-out: Plant response rating, Soybean
[11] = pre-emergence, Preemergence, scale 0 to 100 (0 no effect, 100 complete control), read-out: Plant response rating, Soybean
[12] = post-emergence, Postemergence, scale 0 to 100 (0 no effect, 100 complete control), read-out: Foxtail, Giant plant response rating
[13] = post-emergence, Postemergence, scale 0 to 100, 0 no effect, 100 complete control, read-out: Plant response rating, Foxtail, Giant
[14] = pre-emergence, Preemergence, scale 0 to 100 (0 no effect, 100 complete control), read-out: Plant response rating, Foxtail, Giant
[15] = post-emergence, Postemergence, scale 0 to 100 (0 no effect, 100 complete control), read-out: Barnyardgrass plant response rating
[16] = post-emergence, Postemergence, scale 0 to 100, 0 no effect, 100 complete control, read-out: Plant response rating, Barnyardgrass
[17] = pre-emergence, Preemergence, scale 0 to 100 (0 no effect, 100 complete control), read-out: Plant response rating, Barnyardgrass

Compound: Fc1cccc(Oc2ncc(Cl)cn2)c1-c1cc(C(F)(F)F)on1 [Compound 168, 5-chloro-2-[2-[5-(trifluoromethyl)-3-isoxazolyl]-3-fluorophenoxy]pyrimidine]
- pest or weed control at 31 g/ha ([1]; post-emergence, Postemergence, scale 0 to 100 (0 no effect, 100 complete control), read-out: Waterhemp plant response rating): 90%
- pest or weed control at 62 g/ha [1, 6]: 98%
- pest or weed control at 125 g/ha [1, 6]: 98%
- pest or weed control at 125 g/ha ([1]; pre-emergence, Preemergence, read-out: Plant response rating (scale 0 to 100), Waterhemp): 100%
- pest or weed control at 16 g/ha ([1]; pre-emergence, Preemergence, 16 g ai/ha, scale 0 to 100 (0 no effect, 100 complete control), read-out: Plant response rating, Waterhemp): 100%
- pest or weed control at 31 g/ha [1, 7]: 100%
- pest or weed control at 62 g/ha [1, 7]: 100%
- pest or weed control at 31 g/ha ([2]; post-emergence, Postemergence, scale 0 to 100 (0 no effect, 100 complete control), read-out: Morningglory plant response rating): 85%
- pest or weed control at 62 g/ha [2, 8]: 85%
- pest or weed control at 125 g/ha [2, 8]: 85%
- pest or weed control at 125 g/ha ([2]; pre-emergence, Preemergence, read-out: Plant response rating (scale 0 to 100), Morningglory): 100%
- pest or weed control at 16 g/ha ([2]; pre-emergence, Preemergence, 16 g ai/ha, scale 0 to 100 (0 no effect, 100 complete control), read-out: Plant response rating, Morningglory): 5%
- pest or weed control at 31 g/ha [2, 9]: 70%
- pest or weed control at 62 g/ha [2, 9]: 80%
- plant injury at 31 g/ha (soybean (Glycine max); post-emergence, Postemergence, scale 0 to 100 (0 no effect, 100 complete control), read-out: Soybean plant response rating): 75%
- plant injury at 62 g/ha (soybean (Glycine max); [10]): 40%
- plant injury at 125 g/ha (soybean (Glycine max); [10]): 90%
- plant injury at 125 g/ha (soybean (Glycine max); pre-emergence, Preemergence, read-out: Plant response rating (scale 0 to 100), Soybean): 85%
- plant injury at 16 g/ha (soybean (Glycine max); pre-emergence, Preemergence, 16 g ai/ha, scale 0 to 100 (0 no effect, 100 complete control), read-out: Plant response rating, Soybean): 5%
- plant injury at 31 g/ha (soybean (Glycine max); [11]): 30%
- plant injury at 62 g/ha (soybean (Glycine max); [11]): 55%
- pest or weed control at 16 g/ha [3, 12]: 35%
- pest or weed control at 31 g/ha [3, 12]: 35%
- pest or weed control at 62 g/ha [3, 13]: 40%
- pest or weed control at 125 g/ha [3, 13]: 60%
- pest or weed control at 125 g/ha ([3]; pre-emergence, Preemergence, read-out: Plant response rating (scale 0 to 100), Foxtail, Giant): 100%
- pest or weed control at 16 g/ha [3, 14]: 100%
- pest or weed control at 31 g/ha [3, 14]: 100%
- pest or weed control at 62 g/ha [3, 14]: 100%
- pest or weed control at 16 g/ha [4, 15]: 5%
- pest or weed control at 31 g/ha [4, 15]: 5%
- pest or weed control at 62 g/ha [4, 16]: 10%
- pest or weed control at 125 g/ha [4, 16]: 75%
- pest or weed control at 125 g/ha ([4]; pre-emergence, Preemergence, read-out: Plant response rating (scale 0 to 100), Barnyardgrass): 100%
- pest or weed control at 16 g/ha [4, 17]: 35%
- pest or weed control at 31 g/ha [4, 17]: 75%
- pest or weed control at 62 g/ha [4, 17]: 100%
- plant injury at 16 g/ha (corn (Zea mays); post-emergence, Postemergence, 16 g ai/ha, scale 0 to 100 (0 no effect, 100 complete control), read-out: Corn plant response rating): 5%
- plant injury at 31 g/ha (corn (Zea mays); post-emergence, Postemergence, 31 g ai/ha, scale 0 to 100 (0 no effect, 100 complete control), read-out: Corn plant response rating): 5%
- Corn plant response rating (crop injury, 0 = no effect, 100 = complete kill) at 62 g/ha (corn (Zea mays); post-emergence, Postemergence, scale 0 to 100, 0 no effect, 100 complete control): 10%
- Corn plant response rating (crop injury, 0 = no effect, 100 = complete kill) at 125 g/ha (corn (Zea mays); post-emergence, Postemergence, 125 g ai/ha, scale 0 to 100, 0 no effect, 100 complete control): 20%
- plant injury at 125 g/ha (corn (Zea mays); pre-emergence, Preemergence, 125 g ai/ha, read-out: Plant response rating (scale 0 to 100), Corn): 55%
- Corn plant response rating (crop injury, 0 = no effect, 100 = complete kill) at 16 g/ha (corn (Zea mays); pre-emergence, Preemergence, 16 g ai/ha, scale 0 to 100 (0 no effect, 100 complete control)): 0%
- Corn plant response rating (crop injury, 0 = no effect, 100 = complete kill) at 31 g/ha (corn (Zea mays); pre-emergence, Preemergence, 31 g ai/ha, scale 0 to 100 (0 no effect, 100 complete control)): 15%
- Corn plant response rating (crop injury, 0 = no effect, 100 = complete kill) at 62 g/ha (corn (Zea mays); pre-emergence, Preemergence, scale 0 to 100 (0 no effect, 100 complete control)): 25%
- pest or weed control at 31 g/ha ([5]; post-emergence, Postemergence, 31 g ai/ha, scale 0 to 100 (0 no effect, 100 complete control), read-out: Pigweed plant response rating): 85%
- pest or weed control at 62 g/ha ([5]; post-emergence, Postemergence, 62 g ai/ha, scale 0 to 100, 0 no effect, 100 complete control, read-out: Plant response rating, Pigweed): 95%
- pest or weed control at 125 g/ha ([5]; post-emergence, Postemergence, scale 0 to 100, 0 no effect, 100 complete control, read-out: Plant response rating, Pigweed): 98%
- pest or weed control at 125 g/ha ([5]; pre-emergence, Preemergence, read-out: Plant response rating (scale 0 to 100), Pigweed): 100%
- pest or weed control at 16 g/ha ([5]; pre-emergence, Preemergence, 16 g ai/ha, scale 0 to 100 (0 no effect, 100 complete control), read-out: Plant response rating, Pigweed): 85%
